Reference: patent publication US9562053B2, “Benzo-fused heterocyclic derivatives useful as agonists of GPR120” (Janssen Pharmaceutica NV, priority 2013, dated 2017)

Target: T1, long form of human GPR120 (Homo sapiens, UniProt Q5NUL3)
T1 construct: host or cells: PathHunter CHO-K1 GPR120 β-Arrestin Cell Line
T1 sequence (Q5NUL3 1-377 isoform Q5NUL3-1): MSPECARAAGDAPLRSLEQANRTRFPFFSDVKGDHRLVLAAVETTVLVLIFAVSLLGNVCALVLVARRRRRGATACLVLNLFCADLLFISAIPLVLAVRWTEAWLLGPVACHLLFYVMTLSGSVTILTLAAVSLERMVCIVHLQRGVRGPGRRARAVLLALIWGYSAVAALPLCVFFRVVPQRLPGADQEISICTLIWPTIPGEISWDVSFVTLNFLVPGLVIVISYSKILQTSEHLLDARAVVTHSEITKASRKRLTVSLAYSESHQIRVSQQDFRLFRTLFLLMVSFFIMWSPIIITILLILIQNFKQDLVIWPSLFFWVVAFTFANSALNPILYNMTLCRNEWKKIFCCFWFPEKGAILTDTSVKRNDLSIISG
Assay: Human GPR120 DiscoveRx PathHunter Beta-Arrestin Assay, Procedure β-arrestin A (3000 cells per well)
Assay type: cell-based
Conditions: read-out: GPR120 B-arrestin A EC50
Outline: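 PathHunter CHO-K1 cells with long-form receptor, 3000/well, seeded overnight at 37 °C; equilibrated 60 min at 37 °C in HBSS/20 mM HEPES/0.1% BSA, pH 7.4. Compound serial dilutions (25–0.012 μM) added for 90 min at 37 °C, detection 60 min at room temperature, luminescence read; EC50 from % of positive control, Hill slope fixed at 1.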

## Cc1c(CCC(=O)O)ccc(OCc2cc(F)cc3cc(C#N)oc23)c1C [Compound 49, 3-{4-[(2-Cyano-5-fluoro-1-benzofuran-7-yl)methoxy]-2,3-dimethylphenyl}propanoic acid]
  EC50: 507 nM

## Cc1c(CCC(=O)O)ccc(OCc2cc(F)cc3cc(C(F)(F)F)oc23)c1C [Compound 4, 3-(4-{[5-Fluoro-2-(trifluoromethyl)-1-benzofuran-7-yl]methoxy}-2,3-dimethylphenyl)propanoic acid]
  EC50: 5210 nM

## Cc1cc2cc(Cl)cc(COc3ccc(CCC(=O)O)c(C)c3C)c2o1 [Compound 78, 3-{4-[(5-Chloro-2-methyl-1-benzofuran-7-yl)methoxy]-2,3-dimethylphenyl}propanoic acid]
  EC50: 121 nM

## CCc1cc2cc(OC(F)F)cc(COc3ccc(CCC(=O)O)c(C)c3C)c2o1 [Compound 57, 3-(4-{[5-(Difluoromethoxy)-2-ethyl-1-benzofuran-7-yl]methoxy}-2,3-dimethylphenyl)propanoic acid]
  EC50: 77 nM

## Cc1cc2cc(OC(F)F)cc(COc3ccc(CCC(=O)O)c(C)c3C)c2o1 [Compound 76, 3-(4-{[5-(Difluoromethoxy)-2-methyl-1-benzofuran-7-yl]methoxy}-2,3-dimethylphenyl)propanoic acid]
  EC50: 144 nM

## CCOc1cc(COc2ccc(CCC(=O)O)c(C)c2C)c2oc(CC)cc2c1 [Compound 29, 3-{4-[(5-Ethoxy-2-ethyl-1-benzofuran-7-yl)methoxy]-2,3-dimethylphenyl}propanoic acid]
  EC50: 616 nM

## Cc1cc2cc3c(c(COc4ccc(CCC(=O)O)c(C)c4C)c2o1)OCCO3 [Compound 90, 3-{2,3-Dimethyl-4-[(7-methyl-2,3-dihydrofuro[2,3-g][1,4]benzodioxin-5-yl)methoxy]phenyl}propanoic acid]
  EC50: 532 nM

## Cc1c(CCC(=O)O)ccc(OCc2cc(OC(F)(F)F)cc3cc(C=CF)oc23)c1C (mixture of isomers) [Compound 97, 3-(4-{[2-(2-Fluoroethenyl)-5-(trifluoromethoxy)-1-benzofuran-7-yl]methoxy}-2,3-dimethylphenyl)propanoic acid]
  EC50: 169 nM
